The record followed here is ChEMBL document CHEMBL5532708, “Tetrahydroxanthene-1,3(2H)-diones and Oxidized Hexadiene Derivatives from Uvaria leptopoda and Their Biological Activities” (J Nat Prod, 2024).

Series [1] is described as follows: Cytotoxicity against mouse RAW264.7 cells assessed as cell viability at 15 uM incubated for 24 hrs by MTT assay relative to control. Format: toxicity, cell-based. The note with it: read-out: Activity.
Series [2] relates to SNU1. Put plainly: Cytotoxicity against human SNU1 cells assessed as reduction in cell viability incubated for 24 hrs by MTT assay. Format: functional, cell-based. The note with it: SNU1, 24 h.
In series [3] the test system is RAW264.7. Briefly: Antiinflammatory activity in mouse RAW264.7 cells assessed as inhibition of LPS-induced NO production at 15 uM incubated for 24 hrs by Griess reagent based analysis relative to control. The format is functional. Also on record: scale not given: the % may be the effect or the level left.
Series [4] can be described thus: Cytotoxicity against human Lu1 cells assessed as inhibition of cell growth incubated for 72 hrs by SRB assay. The note with it: Lu1, 72 h. Format: functional, cell-based.
Series [5] concerns KB. Briefly: Cytotoxicity against human KB cells by SRB assay. The format is functional, cell-based.
Series [6] concerns RAW264.7. Put plainly: Antiinflammatory activity in mouse RAW264.7 cells assessed as inhibition of LPS-induced NO production incubated for 24 hrs by Griess reagent based analysis. The format is functional, cell-based. The note with it: RAW264.7, 24 h.
For series [7], the system named is Plasmodium falciparum. Put plainly: Antiplasmodial activity against multidrug resistant Plasmodium falciparum K1 assessed as reduction in parasite growth by [3H]-hypoxanthine incorporation assay. Format: functional, organism-based.

Converted amounts (≈) assume the structure as drawn.

On to `CC(=O)OC[C@@]1(COC(=O)c2ccccc2)O[C@H]1/C=C\COC(=O)c1ccccc1`, for which the viability at 24 h, 15 µM in series [1] is above 90%. The IC50 in series [2] turned out to be 37 µM. In series [3], the Activity is listed as 12%.
In the case of `COc1ccc2c(c1)C[C@]1(OC)C(=O)/C(=C(/O)[C@H]3[C@H](c4ccccc4)[C@H](/C(O)=C4/C(=O)C[C@@]5(OC)Oc6ccc(OC)cc6C[C@@]5(OC)C4=O)[C@H]3c3ccccc3)C(=O)C[C@]1(OC)O2`, the viability at 24 h, 15 µM in series [1] is above 90%. The IC50 in series [2] was determined as 18 µM. In series [3], the Activity came to 6.5%.
Turning to `O=C1c2cc(O)ccc2-c2c3c(cc4ccnc1c24)OCO3`, the IC50 in series [4] was determined as 9.22 µg/mL (≈ 31.7 µM).
In the case of `CC(=O)OC[C@@](O)(COC(=O)c1ccccc1)[C@@H](O)/C=C\COC(=O)c1ccccc1`, the viability at 24 h, 15 µM in series [1] was above 90%. In addition, in series [2], the 50% inhibitory concentration (IC50) worked out at 82 µM. Further, the Activity in series [3] was found to be 14%.
`COc1ccc2c(c1)C[C@H]1[C@@H](OC(=O)c3ccccc3)[C@H](OC(C)=O)C(COC(=O)c3ccccc3)=C[C@H]1O2`: the viability at 24 h, 15 µM in series [1] was above 90%. Also, the half-inhibitory concentration (IC50) in series [2] came out at 130 µM. The Activity in series [3] is given as 15%.
Regarding `CC(C)[C@@H](C)/C=C/[C@@H](C)[C@H]1CCC2=C3C=CC4=CC(=O)CC[C@]4(C)[C@H]3CC[C@@]21C`, the IC50 in series [4] amounted to 10.2 µg/mL (≈ 26 µM).
The compound `COc1cc2cc(-c3ccc(O)cc3)ccc2cc1O` gave an IC50 in series [5] of 5.05 µM.
For the compound `COc1ccc2c(c1)C[C@]1(OC)C(=O)/C(=C(O)\C=C\c3ccccc3)C(=O)C[C@]1(OC)O2` (racemic), the IC50 in series [6] was found to be 6.7 µM; in series [2] it was 34 µM. For the same compound, the viability at 24 h, 15 µM in series [1] was above 90%. In addition, the Activity in series [3] is given as 73%.
Regarding `COc1cc(OC)c(C(=O)/C=C/c2ccccc2)c(O)c1OC`, the viability at 24 h, 15 µM in series [1] is above 90%. The IC50 in series [2] worked out at 11 µM. Moreover, the Activity in series [3] is on record as -11%.
Turning to `COc1cc(OC)c([C@@H]2Oc3c(OC)c(OC)cc(OC)c3[C@@H](/C=C/c3ccccc3)[C@H]2C(=O)c2ccccc2)c(O)c1OC`, the IC50 in series [7] was 3.02 µg/mL (≈ 4.93 µM).
As to `O=C(O)Cc1ccccc1Nc1c(Cl)cccc1Cl` [DICLOFENAC SODIUM], the IC50 in series [6] is 331 µM.
